Values of other authors in PMC3591469 (Bioorganic & medicinal chemistry letters, 2011).

Tested on: recombinant Brd4 protein derived from bacteria
Details: cell-permeable small molecule

## Cc1sc2c(c1C)C(c1ccc(Cl)cc1)=N[C@@H](CC(=O)OC(C)(C)C)c1nnc(C)n1-2 [JQ1]
  inhibition of recombinant Brd4: selective and potent inhibitor
